Measured values as given in patent publication US9751926B2 (priority 2013, dated 2017).
Values after ≈ are worked out from the molar mass of the structure shown. Where two headings read alike, the source gives them in different places.

Tests used:
[1] = physchem; assay type: physicochemical
[2] = target: T1, human GLP-1 receptor (Homo sapiens, UniProt P43220); experiment: cAMP response (HTRF) of HEK-293 cells stably expressing human GLP-1 receptor; assay type: cell-based; settings: Table 6; formed cAMP; read-out: EC50 hGLP-1 R
T1 construct: expressed in transfected cells
Protocol: (§1) cAMP content of cells was determined using a kit from Cisbio Corp. (cat. no. 62AM4PEC) based on HTRF (Homogenous Time Resolved Fluorescence). For preparation, cells were split into T175 culture flasks and grown overnight to near confluency in medium (DMEM/10% FBS). Medium was then removed and cells washed with PBS lacking calcium and magnesium, followed by proteinase treatment with accutase (Sigma-Aldrich cat. no. A6964). Detached cells were washed and resuspended in assay buffer (1×HBSS; 20 mM HEPES, 0.1% BSA, 2 mM IBMX) and cellular density determined. They were then diluted to 400000 cells/ml and 25 μl-aliquots dispensed into the wells of 96-well plates. For measurement, 25 μl of test compound in assay buffer was added to the wells, followed by incubation for 30 minutes at room temperature.

[3] = target: T2, human glucagon receptor (Homo sapiens, UniProt P47871); experiment: cAMP response (HTRF) of HEK-293 cells stably expressing human glucagon receptor; assay type: cell-based; settings: formed cAMP
T2 construct: expressed in transfected cells
Protocol: as §1

[4] = target: T3, human GIP receptor (Homo sapiens, UniProt P48546); experiment: cAMP response (HTRF) of HEK-293 cells stably expressing human GIP receptor; assay type: cell-based; settings: Table 1; formed cAMP; read-out: EC50 hGIP R
T3 construct: expressed in transfected cells
T3 sequence (P48546 22-466): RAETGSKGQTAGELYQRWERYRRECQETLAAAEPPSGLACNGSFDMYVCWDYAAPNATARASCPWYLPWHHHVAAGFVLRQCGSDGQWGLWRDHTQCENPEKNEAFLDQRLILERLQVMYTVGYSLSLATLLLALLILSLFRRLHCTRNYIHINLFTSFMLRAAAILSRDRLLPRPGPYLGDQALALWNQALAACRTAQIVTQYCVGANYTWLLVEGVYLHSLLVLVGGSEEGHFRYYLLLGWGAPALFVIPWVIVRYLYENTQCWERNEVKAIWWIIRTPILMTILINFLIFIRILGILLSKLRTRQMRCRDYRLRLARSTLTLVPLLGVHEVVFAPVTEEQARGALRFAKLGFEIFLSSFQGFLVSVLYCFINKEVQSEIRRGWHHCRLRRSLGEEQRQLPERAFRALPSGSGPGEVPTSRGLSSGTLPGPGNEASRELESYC
Protocol: as §1

[5] = Table 6, read-out: EC50 hGLUC R

T1 sequence (P43220 24-463): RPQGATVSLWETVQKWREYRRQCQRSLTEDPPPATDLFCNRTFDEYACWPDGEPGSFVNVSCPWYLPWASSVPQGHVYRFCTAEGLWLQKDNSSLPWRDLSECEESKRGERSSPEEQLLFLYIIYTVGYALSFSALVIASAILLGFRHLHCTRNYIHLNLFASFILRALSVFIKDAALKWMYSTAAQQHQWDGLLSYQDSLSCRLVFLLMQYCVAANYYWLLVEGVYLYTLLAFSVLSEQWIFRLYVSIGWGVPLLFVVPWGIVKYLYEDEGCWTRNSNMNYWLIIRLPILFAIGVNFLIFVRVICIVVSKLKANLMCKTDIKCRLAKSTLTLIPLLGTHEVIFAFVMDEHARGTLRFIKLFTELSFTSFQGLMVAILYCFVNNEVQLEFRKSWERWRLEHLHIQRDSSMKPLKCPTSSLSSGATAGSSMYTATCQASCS
T2 sequence (P47871 26-477): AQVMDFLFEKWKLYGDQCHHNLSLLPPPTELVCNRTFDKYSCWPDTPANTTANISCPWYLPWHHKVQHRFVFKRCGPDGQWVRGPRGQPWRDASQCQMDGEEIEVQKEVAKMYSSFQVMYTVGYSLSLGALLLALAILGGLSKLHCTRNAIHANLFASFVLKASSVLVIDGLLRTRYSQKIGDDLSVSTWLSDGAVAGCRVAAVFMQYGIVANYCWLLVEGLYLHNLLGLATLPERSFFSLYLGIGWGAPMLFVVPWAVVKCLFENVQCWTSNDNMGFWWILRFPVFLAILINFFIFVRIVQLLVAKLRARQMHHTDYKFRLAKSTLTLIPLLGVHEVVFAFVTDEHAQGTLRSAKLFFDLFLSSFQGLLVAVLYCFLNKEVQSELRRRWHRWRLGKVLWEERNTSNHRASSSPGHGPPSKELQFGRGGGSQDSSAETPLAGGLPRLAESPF

CCCC[C@H](NC(=O)[C@H](CCC(N)=O)NC(=O)[C@@H](NC(=O)[C@H](CO)NC(=O)[C@H](CC(C)C)NC(=O)[C@H](CC(=O)O)NC(=O)[C@H](CO)NC(=O)[C@@H](NC(=O)[C@H](Cc1ccccc1)NC(=O)[C@@H](NC(=O)CNC(=O)[C@H](CCC(=O)O)NC(=O)C(C)(C)NC(=O)[C@@H](N)Cc1ccc(O)cc1)[C@@H](C)O)[C@@H](C)O)[C@@H](C)CC)C(=O)N[C@@H](CCC(=O)O)C(=O)N[C@@H](CCCCN)C(=O)N[C@@H](CCC(=O)O)C(=O)N[C@@H](C)C(=O)N[C@H](C(=O)N[C@@H](CCCNC(=N)N)C(=O)N[C@@H](CC(C)C)C(=O)N[C@@H](Cc1ccccc1)C(=O)N[C@H](C(=O)N[C@@H](CCC(=O)O)C(=O)N[C@@H](Cc1c[nH]c2ccccc12)C(=O)N[C@@H](CC(C)C)C(=O)N[C@@H](CCCCN)C(=O)N[C@@H](C)C(=O)NCC(=O)NCC(=O)N1CCC[C@H]1C(=O)N[C@@H](CO)C(=O)N[C@@H](CO)C(=O)NCC(=O)N[C@@H](C)C(=O)N1CCC[C@H]1C(=O)N1CCC[C@H]1C(=O)N1CCC[C@H]1C(=O)N[C@@H](CO)C(=O)N[C@@H](CCCCN)C(N)=O)[C@@H](C)CC)C(C)C [compound 12]
solubility at 2 h ([1]; pH 4.5): 943 µg/mL (≈ 220 µM) | solubility at 2 h ([1]; pH 7.4): 848 µg/mL (≈ 198 µM) | EC50 [2]: 0.0013 nM | EC50 [3, 5]: > 1000 nM

CC[C@H](C)[C@H](NC(=O)[C@H](CO)NC(=O)[C@H](CC(C)C)NC(=O)[C@H](CC(=O)O)NC(=O)[C@H](CO)NC(=O)[C@@H](NC(=O)[C@H](Cc1ccccc1)NC(=O)[C@@H](NC(=O)CNC(=O)[C@H](CCC(=O)O)NC(=O)C(C)(C)NC(=O)[C@@H](N)Cc1ccc(O)cc1)[C@@H](C)O)[C@@H](C)O)C(=O)N[C@@H](CCC(N)=O)C(=O)N[C@@H](CC(C)C)C(=O)N[C@@H](CCC(=O)O)C(=O)N[C@@H](CCCCN)C(=O)N[C@@H](CCC(=O)O)C(=O)N[C@@H](C)C(=O)N[C@H](C(=O)N[C@@H](CCCNC(=N)N)C(=O)N[C@@H](CC(C)C)C(=O)N[C@@H](Cc1ccccc1)C(=O)N[C@H](C(=O)N[C@@H](CCC(=O)O)C(=O)N[C@@H](Cc1c[nH]c2ccccc12)C(=O)N[C@@H](CC(C)C)C(=O)N[C@@H](CCCCN)C(=O)N[C@@H](C)C(=O)NCC(=O)NCC(=O)N1CCC[C@H]1C(=O)N[C@@H](CO)C(=O)N[C@@H](CO)C(=O)NCC(=O)N[C@@H](C)C(=O)N1CCC[C@H]1C(=O)N1CCC[C@H]1C(=O)N1CCC[C@H]1C(=O)N[C@@H](CO)C(N)=O)[C@@H](C)CC)C(C)C [SEQ ID NO 10, Y-Aib-EGTFTSDLSIQLEKEAVRLFIEWLKAGGPSSGAPPPS-NH2]
solubility ([1]; pH 4.5): 934 µg/mL (≈ 224 µM) | solubility ([1]; pH 7.4): > 1000 µg/mL | EC50 [4]: 12.5 nM | EC50 ([3]; Table 1, read-out: EC50 hGlucagon R): > 10000 nM

CCCC[C@H](NC(=O)[C@H](CCC(N)=O)NC(=O)[C@@H](NC(=O)[C@H](CO)NC(=O)[C@H](CC(C)C)NC(=O)[C@H](CC(=O)O)NC(=O)[C@H](CO)NC(=O)[C@@H](NC(=O)[C@H](Cc1ccccc1)NC(=O)[C@@H](NC(=O)CNC(=O)[C@H](CCC(=O)O)NC(=O)C(C)(C)NC(=O)[C@@H](N)Cc1ccc(O)cc1)[C@@H](C)O)[C@@H](C)O)[C@@H](C)CC)C(=O)N[C@@H](CCC(=O)O)C(=O)N[C@@H](CCCCN)C(=O)N[C@@H](CCC(=O)O)C(=O)N[C@@H](C)C(=O)N[C@H](C(=O)N[C@@H](CCCNC(=N)N)C(=O)N[C@@H](CC(C)C)C(=O)N[C@@H](Cc1ccccc1)C(=O)N[C@H](C(=O)N[C@@H](CCC(=O)O)C(=O)N[C@@H](Cc1c[nH]c2ccccc12)C(=O)N[C@@H](CC(C)C)C(=O)N[C@@H](CCCCN)C(=O)N[C@@H](C)C(=O)NCC(=O)NCC(=O)N1CCC[C@H]1C(=O)N[C@@H](CO)C(=O)N[C@@H](CO)C(=O)NCC(=O)N[C@@H](C)C(=O)N1CCC[C@H]1C(=O)N1CCC[C@H]1C(=O)N1CCC[C@H]1C(=O)N[C@@H](CO)C(N)=O)[C@@H](C)CC)C(C)C [compound 11]
solubility at 2 h ([1]; pH 4.5): 911 µg/mL (≈ 219 µM) | solubility at 2 h ([1]; pH 7.4): > 1000 µg/mL | EC50 [2]: 0.001 nM | EC50 [3, 5]: > 1000 nM

CC[C@H](C)[C@H](NC(=O)[C@H](CO)NC(=O)[C@H](CC(C)C)NC(=O)[C@H](CC(=O)O)NC(=O)[C@H](CO)NC(=O)[C@@H](NC(=O)[C@H](Cc1ccccc1)NC(=O)[C@@H](NC(=O)CNC(=O)[C@H](CCC(=O)O)NC(=O)C(C)(C)NC(=O)[C@@H](N)Cc1ccc(O)cc1)[C@@H](C)O)[C@@H](C)O)C(=O)N[C@@H](CCC(N)=O)C(=O)N[C@@H](CC(C)C)C(=O)N[C@@H](CCC(=O)O)C(=O)N[C@@H](CCC(=O)O)C(=O)N[C@@H](CCC(=O)O)C(=O)N[C@@H](C)C(=O)N[C@H](C(=O)NC(C)(C)C(=O)N[C@@H](CC(C)C)C(=O)N[C@@H](Cc1ccccc1)C(=O)N[C@H](C(=O)N[C@@H](CCC(=O)O)C(=O)N[C@@H](Cc1c[nH]c2ccccc12)C(=O)N[C@@H](CC(C)C)C(=O)N[C@@H](CCCCN)C(=O)N[C@@H](C)C(=O)NCC(=O)NCC(=O)N1CCC[C@H]1C(=O)N[C@@H](CO)C(=O)N[C@@H](CO)C(=O)NCC(=O)N[C@@H](C)C(=O)N1CCC[C@H]1C(=O)N1CCC[C@H]1C(=O)N1CCC[C@H]1C(=O)N[C@@H](CO)C(N)=O)[C@@H](C)CC)C(C)C [compound 16]
EC50 [2]: 0.001 nM | EC50 [3, 5]: > 1000 nM

CC[C@H](C)[C@H](NC(=O)[C@H](CO)NC(=O)[C@H](CC(C)C)NC(=O)[C@H](CC(=O)O)NC(=O)[C@H](CO)NC(=O)[C@@H](NC(=O)[C@H](Cc1ccccc1)NC(=O)[C@@H](NC(=O)CNC(=O)[C@H](CCC(=O)O)NC(=O)C(C)(C)NC(=O)[C@@H](N)Cc1ccc(O)cc1)[C@@H](C)O)[C@@H](C)O)C(=O)N[C@@H](CCC(N)=O)C(=O)N[C@@H](CC(C)C)C(=O)N[C@@H](CCC(=O)O)C(=O)N[C@@H](CCC(=O)O)C(=O)N[C@@H](CCC(=O)O)C(=O)N[C@@H](C)C(=O)N[C@H](C(=O)N[C@@](C)(CCCCN)C(=O)N[C@@H](CC(C)C)C(=O)N[C@@H](Cc1ccccc1)C(=O)N[C@H](C(=O)N[C@@H](CCC(=O)O)C(=O)N[C@@H](Cc1c[nH]c2ccccc12)C(=O)N[C@@H](CC(C)C)C(=O)N[C@@H](CCCCN)C(=O)N[C@@H](C)C(=O)NCC(=O)NCC(=O)N1CCC[C@H]1C(=O)N[C@@H](CO)C(=O)N[C@@H](CO)C(=O)NCC(=O)N[C@@H](C)C(=O)N1CCC[C@H]1C(=O)N1CCC[C@H]1C(=O)N1CCC[C@H]1C(=O)N[C@@H](CO)C(N)=O)[C@@H](C)CC)C(C)C [compound 17]
EC50 [2]: 0.0011 nM | EC50 [3, 5]: > 1000 nM
